“And” between values parts separate entries of the source, which are not always exact repeats. Equal values may be shown once. Read-outs that look alike come from different tables or passages of the source.
Columns and labels:
[1] = set-up: method as in Doerge at al. (2005); settings: male F344 rats, single dietary exposure ca. 100 µg AA/kg bw, n = 7, direct measurements; ref Doerge at al. (2005); cited from earlier work
[2] = male rat, different AA exposure studies, various methods; cited from earlier work
[3] = cited from earlier work
[4] = cited from earlier work; remark: listed apart in the source
[5] = In vivo dose (AUC) in human calculated from measured Hb adduct levels after AA exposure; settings: human in vivo study used (dietary AA)
Protocol: (§1) The in vivo dose or AUC of a compound in blood is the concentration integrated over time (Eq. 2).2 AUC=∫tC(t)dt A method to infer the AUC of an electrophilic compound or metabolite from measured Hb adduct levels (A) has been developed and established by our research group for quantitative monitoring of exposure in humans or for application in animal studies[1],[3]. When Hb adduct formation is measured a short time after a single acute exposure, or after incubation in vitro, AUC can be calculated using Eq. 3. This equation is based on A, and the second-order reaction rate constant (kNu) for the formation of an adduct to a nucleophilic site in Hb from the concerned electrophile.3 AUC=A/kNu
(§2) For calculating the daily AUC from a longer duration of exposure, the daily adduct level increments (a) have to be calculated considering the accumulation and elimination of adducts due to lifetime of the erythrocytes (t er). […] From continuous or subchronic exposure when the exposure time (t) is shorter than t er, the accumulated adduct level is calculated [a × t × (1 − t/2t er)][49].
In vivo dose or AUC of AA and of GA in human after intake of AA-rich food was obtained from Vikström et al.[23]. […] The measured adduct levels were used to calculate the daily adduct level increment, a, and adjusted for intake per kg bw (exposure dose 11 μg AA/kg bw). […]

[6] = In vivo dose (AUC) in rat calculated from measured Hb adduct levels after AA exposure; settings: rat in vivo study used (AA in drinking water)
Protocol: as §1, §2
For in vivo data on AUC of AA and of GA from AA exposure in rats, a study on short-term oral exposure of rats was used[24]. […] Blood samples were collected and AA- and GA-adducts to N-terminal valine in Hb were measured as described above, and recalculated to the daily increment of the adduct level. […]

[7] = liver microsomes, rat (male, SD) vs. human (male); cited from earlier work
[8] = Parallelogram approach prediction of AUC-DEB in rat from BD exposure; settings: from the parallelogram approach
Protocol: The inter-species extrapolation was performed using in vitro metabolic data on enzyme kinetics and published Hb adduct data[6]. This study was initiated as the AUC of DEB (AUC-DEB), in humans exposed to BD, had not been possible to measure with available methods.
(§3) In our first application of the parallelogram approach, AUC-DEB was predicted in a case study on BD exposure. […] In the case of BD, the relatively large inter-species differences in metabolism were an advantage for testing of the approach.

[9] = set-up: method as in PMID 25448046; settings: occupationally BD-exposed humans; cited from earlier work
[10] = set-up: method as in PMID 25448046; settings: human, for 1 ppm·h of BD exposure; cited from earlier work
[11] = set-up: method as in PMID 25448046; settings: mouse exposed to BD; cited from earlier work
[12] = set-up: method as in PMID 25448046; settings: mouse, for 1 ppm·h of BD exposure; cited from earlier work
[13] = set-up: method as in PMID 25448046; settings: rat, for 1 ppm·h of BD exposure; cited from earlier work
[14] = set-up: method as in PMID 25448046; settings: rat exposed to BD; cited from earlier work
[15] = AUC-DEB in rat calculated from measured Hb adduct levels after BD exposure; assay type: in vivo
Description: as §3

| SMILES | AUC-AA [1] [nM·h/ μg AA per kg bw] | range of AUC-AA [2] | daily Hb adduct level increment per exposure dose ([3]; Human, AA-rich food 4 days, 11 μg AA/kg bw, adducts to N-terminal valine) | AUC-AA ([3]; Human, ca. 11 μg AA/kg bw and day through food, 4 days, n = 9, from Hb adducts) | AUC-AA ([3]; Humans, ca. 2.5 μg AA/kg bw daily through food, 28 days, n = 9, ref Vikström et al. (2011)) [nM·h/ μg AA per kg bw] | AUC-AA ([3]; Humans, single dose in drinking water 500, 1000 and 3000 µg AA/kg bw, n = 6 males, ref Fennell et al. (2005)) [nM·h/ μg AA per kg bw] | AUC-AA ([4]; Rat (male F344), 500 and 2000 μg AA/kg bw and day in drinking water, one week, n = 6, from Hb adducts) | AUC of AA ([4]; SD rat (male), subchronic intraperitoneal AA, Hb adducts on cysteine site) [nM·h per μg AA per kg bw] | AUC-AA ([4]; male F344 rats, single dose 0.1 mg AA/kg bw, Hb adducts, ref Tareke et al. (2006)) [nM·h/ μg AA per kg bw] | in vivo levels of AA (estimated) [5] | in vivo levels of AA (estimated) [6] [µM] | oxidation to GA, rat compared to human (times faster in rat) [7] | ratio for rat-to-human of AUC-DEB per AUC-EB [8] | AUC-DEB calculated from measured Hb adducts levels [9] [nM·h/ppm·h BD] | AUC-DEB predicted (parallelogram approach) [10] [nM·h] | AUC-DEB calculated from measured Hb adducts levels [11] [nM·h/ppm·h BD] | AUC-DEB predicted (parallelogram approach) [12] [nM·h] | AUC-DEB predicted (parallelogram approach) [13] [nM·h] | AUC-DEB calculated from measured Hb adducts levels [14] [nM·h/ppm·h BD] | ratio for rat-to-human of AUC-DEB per AUC-EB [15] |
| --- | --- | --- | --- | --- | --- | --- | --- | --- | --- | --- | --- | --- | --- | --- | --- | --- | --- | --- | --- | --- |
| C=CC(N)=O [AA, Acrylamide] | 18 | 18–80 nM·h per μg AA per kg bw | 1.4 pmol/g globin per μg AA/kg bw and day | 212 ± 56 nM·h/μg AA per kg bw and 212 nM·h/μg AA per kg bw | 120 | 246 | 34 ± 3 nM·h/μg AA per kg bw and 34 nM·h/μg AA per kg bw | 28.2 | 23 | about 100 nM | ~25 | ca. 3 times | – | – | – | – | – | – | – | – |
| C1OC1C1CO1 (centres unmarked) [DEB, 1,2:3,4-diepoxbutane] | – | – | – | – | – | – | – | – | – | – | – | – | 2.2 | 0.023 | 0.078 | 38 | 41 | 1.26 | 1.37 | 4.3 |
